Legend:
[1] = target: T1, cellular prion protein (PrP^C) (Mus musculus, UniProt P04925); test: biochemical; type: binding
T1 construct: gene Prnp

[2] = target: T2, cellular prion protein (PrP^C) (Homo sapiens, UniProt P04156); test: biochemical; type: binding
T2 construct: gene PRNP

T1 sequence (P04925 23-230 limits assumed): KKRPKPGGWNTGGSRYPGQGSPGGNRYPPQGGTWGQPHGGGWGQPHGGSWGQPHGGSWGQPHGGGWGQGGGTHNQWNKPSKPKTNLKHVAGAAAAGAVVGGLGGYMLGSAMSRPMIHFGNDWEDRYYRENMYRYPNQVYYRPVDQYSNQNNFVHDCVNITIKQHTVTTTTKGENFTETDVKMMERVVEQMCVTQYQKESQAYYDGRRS

CN(C)CCCN1c2ccccc2Sc2ccc(Cl)cc21 [CPZ, chlorpromazine]
Kd [1]: > 100 µM | Kd [2]: 421 µM

Reference: article PMC5546605 (PLoS ONE, 2017)
